Measured values published in ChEMBL document CHEMBL5104165, “Novel fragment-derived colchicine-site binders as microtubule-destabilizing agents” (Eur J Med Chem, 2022).
The source made the active and inactive calls. No cut-off for these calls is given here.

Experiments:
HeLa = assay: Cytotoxicity against human HeLa cells assessed as inhibition of cell growth incubated for 72 hrs by resazurin dye based assay; assay type: functional
Tubulin (Homo sapiens) [1] = biological target: T1, Tubulin (Homo sapiens) (UniProt P68371+Q9H4B7+P0DPH7+P68366+Q13509+Q71U36+P04350+Q3ZCM7+P07437+P68363+Q9BQE3+Q6PEY2+Q13885+Q9BVA1+Q9BUF5); assay: Disruption of microtubules in human HMF3A cells at 5 uM measured after 1 hr by immunostaining based confocal microscopic analysis; assay type: cell-based
Tubulin (Homo sapiens) [2] = biological target: T1, Tubulin (Homo sapiens); assay: Disruption of microtubules in human HMF3A cells assessed as increase in cell size at 5 uM measured after 4 hrs by immunostaining based confocal microscopic analysis
Tubulin (Homo sapiens) [3] = biological target: T1, Tubulin (Homo sapiens); assay: Disruption of microtubules in human HMF3A cells assessed as increase in nucleus size at 5 uM measured after 4 hrs by immunostaining based confocal microscopic analysis; assay type: cell-based

Structure (SMILES)	IC50 (HeLa)	other results
c1ccc(Oc2ccc3[nH]c(NCc4ccco4)nc3c2)cc1	0.94 µM	Activity (Tubulin (Homo sapiens) [1]): Active; Activity (Tubulin (Homo sapiens) [2]): Active; Activity (Tubulin (Homo sapiens) [3]): Active
c1coc(CNc2nc3ccccc3[nH]2)c1	54 µM	–
COc1ccc2[nH]c(NCc3ccco3)nc2c1	10.1 µM	–
Cc1ccc(CNc2nc3ccccc3[nH]2)o1	22.3 µM	–
FC(F)(F)c1ccc2[nH]c(NCc3ccco3)nc2c1	9.9 µM	–
Cc1ccc2[nH]c(NCc3ccco3)nc2c1	5.6 µM	–
N#Cc1ccc2[nH]c(NCc3ccco3)nc2c1	> 80 µM	–
Clc1ccc2[nH]c(NCc3ccco3)nc2c1	4.5 µM	–
COC(=O)c1ccc2[nH]c(NCc3ccco3)nc2c1	7 µM	–
